According to patent US20100273769A1, “COMPOSITION AND METHOD FOR THE TREATMENT OF PARKINSON'S DISEASE” (priority 2009, published 2010):
pIC50: −log10 of the molar value.

Key:
[1] = molecular target: T1, G2019S mutant LRRK2 (Homo sapiens, UniProt Q5S007, G2019S); test: Adapta assay, inhibition of G2019S mutant LRRK2 kinase fragment; assay type: biochemical; details: 100 μM ATP, FIG. 3B
T1 construct: of the mutant aa1326-2527 kinase fragment are used in the assays; GST; made in house
T1 sequence (Q5S007 1326-2527 G2019S): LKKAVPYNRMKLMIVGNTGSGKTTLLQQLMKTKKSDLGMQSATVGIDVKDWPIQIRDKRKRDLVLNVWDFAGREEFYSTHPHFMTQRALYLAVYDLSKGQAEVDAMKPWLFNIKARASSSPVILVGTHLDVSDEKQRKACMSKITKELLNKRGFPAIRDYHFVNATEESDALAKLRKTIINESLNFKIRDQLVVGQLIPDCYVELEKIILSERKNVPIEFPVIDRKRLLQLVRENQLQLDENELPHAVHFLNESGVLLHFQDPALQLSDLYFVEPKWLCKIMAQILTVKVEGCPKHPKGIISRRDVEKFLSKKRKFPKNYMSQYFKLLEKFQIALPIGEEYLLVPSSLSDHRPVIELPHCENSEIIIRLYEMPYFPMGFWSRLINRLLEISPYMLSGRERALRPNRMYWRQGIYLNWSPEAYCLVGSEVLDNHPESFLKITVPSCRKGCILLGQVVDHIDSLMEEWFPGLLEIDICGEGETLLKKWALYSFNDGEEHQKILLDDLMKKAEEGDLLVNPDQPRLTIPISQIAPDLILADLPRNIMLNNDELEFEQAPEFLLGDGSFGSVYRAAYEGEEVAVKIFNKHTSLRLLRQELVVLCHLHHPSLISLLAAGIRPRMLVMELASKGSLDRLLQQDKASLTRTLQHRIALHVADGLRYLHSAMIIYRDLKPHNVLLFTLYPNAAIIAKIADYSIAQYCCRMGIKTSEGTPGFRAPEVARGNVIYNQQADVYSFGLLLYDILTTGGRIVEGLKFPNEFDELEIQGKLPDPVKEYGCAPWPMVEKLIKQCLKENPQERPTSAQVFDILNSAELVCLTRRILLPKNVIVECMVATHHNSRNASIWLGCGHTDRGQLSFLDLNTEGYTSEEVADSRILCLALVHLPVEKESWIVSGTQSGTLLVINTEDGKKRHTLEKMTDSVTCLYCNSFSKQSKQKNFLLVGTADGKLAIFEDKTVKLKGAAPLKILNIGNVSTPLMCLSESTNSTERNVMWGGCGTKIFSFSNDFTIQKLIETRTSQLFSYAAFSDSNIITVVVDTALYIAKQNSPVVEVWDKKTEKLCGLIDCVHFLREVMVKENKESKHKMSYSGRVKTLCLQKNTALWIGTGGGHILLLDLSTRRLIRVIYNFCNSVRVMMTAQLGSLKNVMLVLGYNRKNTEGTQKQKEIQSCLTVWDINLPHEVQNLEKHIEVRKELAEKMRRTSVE
Experimental: Duplicate assay mixtures are set up each in a 10 μL volume containing 17 ng (8 nM) of human LRRK2 protein fragment encompassing amino acids 1326 to 2527, obtained as a recombinant GST fusion protein [according to Jaleel et al., Biochem. J. 405, 307-317 (2007)], 200 μM LRRKtide ([…]peptide), 25 mM Tris, pH 8.2, 5 mM MgCl2, 0.5 mM EGTA, 100 μM ATP, 0.005% Brij-35, 1% DMSO, and compound 3 in a series of concentrations (OnM, 0.1 nM, 0.3 nM, 1 nM, 3 nM, 10 nM, 30 nM, 100 nM, 300 nM, 1000 nM). After incubation for 1 hr at ambient temperature, 5 μL of the Adapta® Assay Detection Mix (Invitrogen) is added, containing 30 mM EDTA to stop the kinase reaction, 30 nM of the Eu-labelled anti-ADP antibody, and the AlexaFluor°-ADP conjugate. […]
The assays conducted in a 384 well microplate are then read out in a fluorescence microplate reader to establish the ratio of emissions at 665 nm (ADP-tracer) and at 615 nm (Eu-antibody) as a measure of ADP concentration by virtue of Fluorescence Resonance Energy Transfer (FRET). The conversion in % of ATP into ADP by the kinase reaction in each well is determined from the ADP/ATP standard curve, and means are formed from each duplicate assay well. […]
Inhibition is determined in the same way as in example 2, except that due to the higher specific activity […] of the mutant aa1326-2527 kinase fragment are used in the assays

[2] = molecular target: Cdk1 (Homo sapiens, UniProt P06493); test: Kinase specificity, Cdk1; assay type: biochemical; details: 100 μM ATP
Chain of Cdk1 (P06493 whole entry, species assumed): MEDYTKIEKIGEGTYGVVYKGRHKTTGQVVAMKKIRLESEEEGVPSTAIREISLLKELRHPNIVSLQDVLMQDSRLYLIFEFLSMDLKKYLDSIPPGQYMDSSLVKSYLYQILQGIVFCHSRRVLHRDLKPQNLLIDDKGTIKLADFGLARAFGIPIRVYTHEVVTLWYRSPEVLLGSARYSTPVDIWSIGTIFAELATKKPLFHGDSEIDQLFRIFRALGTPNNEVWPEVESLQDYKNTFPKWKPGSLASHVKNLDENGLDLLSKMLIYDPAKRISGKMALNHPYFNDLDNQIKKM
Chain of Cdk1 (P14635 whole entry partner, species assumed): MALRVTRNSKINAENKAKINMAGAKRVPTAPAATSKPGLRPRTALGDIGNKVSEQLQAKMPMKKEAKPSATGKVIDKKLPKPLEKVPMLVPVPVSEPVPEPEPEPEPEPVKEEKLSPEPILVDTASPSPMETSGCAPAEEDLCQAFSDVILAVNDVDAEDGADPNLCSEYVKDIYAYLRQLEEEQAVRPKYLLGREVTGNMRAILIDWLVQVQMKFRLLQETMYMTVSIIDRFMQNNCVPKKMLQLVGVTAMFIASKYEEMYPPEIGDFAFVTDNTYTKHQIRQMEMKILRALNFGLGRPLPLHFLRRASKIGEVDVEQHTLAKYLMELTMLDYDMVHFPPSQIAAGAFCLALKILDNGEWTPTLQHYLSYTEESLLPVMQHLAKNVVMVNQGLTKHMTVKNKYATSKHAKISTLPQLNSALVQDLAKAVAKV

For `CNC(=O)[C@@]1(N)CC2OC1(C)n1c3ccccc3c3c4c(c5c6ccccc6n2c5c31)C(=O)NC4` (some centres unmarked) [Compound 3], the “IC50 relative to nominal kinase concentration, G2019S LRRK2” value [1] was “substantially below the nominal concentration of the kinase itself” and the pIC50 [2] was 7.77.
